Test results reported in ChEMBL document CHEMBL1201862, “PubChem BioAssay data set” (2004).
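Briefly, cells in 96-well plates were exposed to five compound concentrations for 48 h, and endpoints were estimated by linear interpolation. The concentration for 50% growth inhibition is given as GI50.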 Activity calls are given as the source filed them. Rule as the data show it: active = GI50 up to about 1.1 µM and inactive = higher.

Assays:
Assay in all cases: NCI-60 cell line screen, 48 h
786-0 = system: 786-0
A498 = system: A498
ACHN = system: ACHN
BT-549 = system: BT-549
CAKI-1 = system: CAKI-1
COLO 205 = system: COLO 205
DU-145 = system: DU-145
EKVX = system: EKVX
HCC 2998 = system: HCC 2998
HCT-15 = system: HCT-15
HL-60 = system: HL-60
HOP-62 = system: HOP-62
HOP-92 = system: HOP-92
HT-29 = system: HT-29
Hs-578T = system: Hs-578T
IGROV-1 = system: IGROV-1
M14 = system: M14
MDA-MB-231 = system: MDA-MB-231
MDA-MB-435 = system: MDA-MB-435
MOLT-4 = system: MOLT-4
Malme-3M = system: Malme-3M
NCI-H226 = system: NCI-H226
NCI-H23 = system: NCI-H23
NCI-H460 = system: NCI-H460
NCI-H522 = system: NCI-H522
NCI/ADR-RES = system: NCI/ADR-RES
OVCAR-3 = system: OVCAR-3
OVCAR-4 = system: OVCAR-4
OVCAR-5 = system: OVCAR-5
OVCAR-8 = system: OVCAR-8
PC-3 = system: PC-3
RPMI-8226 = system: RPMI-8226
RXF 393 = system: RXF 393
SF-268 = system: SF-268
SF-295 = system: SF-295
SF-539 = system: SF-539
SK-MEL-28 = system: SK-MEL-28
SK-MEL-2 = system: SK-MEL-2
SK-MEL-5 = system: SK-MEL-5
SK-OV-3 = system: SK-OV-3
SN12C = system: SN12C
SNB-19 = system: SNB-19
SNB-75 = system: SNB-75
SW-620 = system: SW-620
T47D = system: T47D
TK-10 = system: TK-10
U-251 = system: U-251
UACC-257 = system: UACC-257
UACC-62 = system: UACC-62
UO-31 = system: UO-31
CCRF-CEM = system: CCRF-CEM
HCT-116 = system: HCT-116
K562 = system: K562
KM12 = system: KM12
LOX IMVI = system: LOX IMVI
MCF7 = system: MCF7
MDA-N = system: MDA-N
SR = system: SR
A549 = system: A549

Cc1cc(=O)nc(S(=O)(=O)NC(=S)Nc2ccc(Br)cc2)[nH]1
GI50 (786-0): > 100 µM (inactive) | GI50 (A498): > 100 µM (inactive) | GI50 (ACHN): > 100 µM (inactive) | GI50 (BT-549): > 100 µM (inactive) | GI50 (CAKI-1): 65.6 µM (inactive) | GI50 (COLO 205): > 100 µM (inactive) | GI50 (DU-145): > 100 µM (inactive) | GI50 (EKVX): 42.1 µM (inactive) | GI50 (HCC 2998): > 100 µM (inactive) | GI50 (HCT-15): 75.9 µM | GI50 (HL-60): > 100 µM (inactive) | GI50 (HOP-62): > 100 µM (inactive) | GI50 (HOP-92): 21 µM (inactive) | GI50 (HT-29): > 100 µM (inactive) | GI50 (Hs-578T): > 100 µM (inactive) | GI50 (IGROV-1): 73.1 µM (inactive) | GI50 (M14): > 100 µM (inactive) | GI50 (MDA-MB-231): > 100 µM (inactive) | GI50 (MDA-MB-435): > 100 µM (inactive) | GI50 (MOLT-4): 36 µM (inactive) | GI50 (Malme-3M): > 100 µM (inactive) | GI50 (NCI-H226): > 100 µM (inactive) | GI50 (NCI-H23): > 100 µM (inactive) | GI50 (NCI-H460): > 100 µM (inactive) | GI50 (NCI-H522): 18.6 µM (inactive) | GI50 (NCI/ADR-RES): > 100 µM (inactive) | GI50 (OVCAR-3): > 100 µM (inactive) | GI50 (OVCAR-4): 93.5 µM (inactive) | GI50 (OVCAR-5): > 100 µM (inactive) | GI50 (OVCAR-8): > 100 µM (inactive) | GI50 (PC-3): > 100 µM (inactive) | GI50 (RPMI-8226): 33.4 µM (inactive) | GI50 (RXF 393): 20.5 µM (inactive) | GI50 (SF-268): > 100 µM (inactive) | GI50 (SF-295): > 100 µM (inactive) | GI50 (SF-539): > 100 µM (inactive) | GI50 (SK-MEL-28): > 100 µM (inactive) | GI50 (SK-MEL-2): > 100 µM (inactive) | GI50 (SK-MEL-5): > 100 µM (inactive) | GI50 (SK-OV-3): > 100 µM (inactive) | GI50 (SN12C): > 100 µM (inactive) | GI50 (SNB-19): > 100 µM (inactive) | GI50 (SNB-75): > 100 µM (inactive) | GI50 (SW-620): > 100 µM (inactive) | GI50 (T47D): > 100 µM (inactive) | GI50 (TK-10): > 100 µM (inactive) | GI50 (U-251): > 100 µM (inactive) | GI50 (UACC-257): > 100 µM (inactive) | GI50 (UACC-62): > 100 µM (inactive) | GI50 (UO-31): > 100 µM (inactive)

O=c1[nH]c2ccc(CC(=S)N3CCOCC3)cc2s1
GI50 (786-0): > 100 µM (inactive) | GI50 (A498): > 100 µM (inactive) | GI50 (ACHN): > 100 µM (inactive) | GI50 (BT-549): > 100 µM (inactive) | GI50 (CAKI-1): > 100 µM (inactive) | GI50 (CCRF-CEM): > 100 µM (inactive) | GI50 (COLO 205): > 100 µM (inactive) | GI50 (DU-145): > 100 µM (inactive) | GI50 (EKVX): > 100 µM (inactive) | GI50 (HCT-116): > 100 µM (inactive) | GI50 (HCT-15): > 100 µM | GI50 (HL-60): 53.6 µM (inactive) | GI50 (HOP-62): > 100 µM (inactive) | GI50 (HT-29): > 100 µM (inactive) | GI50 (Hs-578T): > 100 µM (inactive) | GI50 (IGROV-1): > 100 µM (inactive) | GI50 (K562): > 100 µM (inactive) | GI50 (KM12): > 100 µM (inactive) | GI50 (LOX IMVI): > 100 µM (inactive) | GI50 (M14): > 100 µM (inactive) | GI50 (MCF7): > 100 µM (inactive) | GI50 (MDA-MB-231): > 100 µM (inactive) | GI50 (MDA-MB-435): > 100 µM (inactive) | GI50 (MDA-N): > 100 µM (inactive) | GI50 (MOLT-4): > 100 µM (inactive) | GI50 (Malme-3M): > 100 µM (inactive) | GI50 (NCI-H226): > 100 µM (inactive) | GI50 (NCI-H23): > 100 µM (inactive) | GI50 (NCI-H460): > 100 µM (inactive) | GI50 (NCI/ADR-RES): > 100 µM (inactive) | GI50 (OVCAR-3): > 100 µM (inactive) | GI50 (OVCAR-5): > 100 µM (inactive) | GI50 (OVCAR-8): > 100 µM (inactive) | GI50 (PC-3): > 100 µM (inactive) | GI50 (RPMI-8226): > 100 µM (inactive) | GI50 (RXF 393): > 100 µM (inactive) | GI50 (SF-268): > 100 µM (inactive) | GI50 (SF-295): > 100 µM (inactive) | GI50 (SF-539): > 100 µM (inactive) | GI50 (SK-MEL-28): > 100 µM (inactive) | GI50 (SK-MEL-2): > 100 µM (inactive) | GI50 (SK-MEL-5): > 100 µM (inactive) | GI50 (SK-OV-3): > 100 µM (inactive) | GI50 (SN12C): > 100 µM (inactive) | GI50 (SNB-19): > 100 µM (inactive) | GI50 (SR): > 100 µM (inactive) | GI50 (SW-620): > 100 µM (inactive) | GI50 (TK-10): > 100 µM (inactive) | GI50 (U-251): > 100 µM (inactive) | GI50 (UACC-257): > 100 µM (inactive) | GI50 (UACC-62): > 100 µM (inactive)

CCOC(=O)C(CCc1ncnc2c1ncn2Cc1ccccc1)(CCc1ncnc2c1ncn2Cc1ccccc1)C(=O)OCC
GI50 (786-0): 41.1 µM (inactive) | GI50 (A498): 47.4 µM (inactive) | GI50 (A549): 39.2 µM (inactive) | GI50 (ACHN): 81.8 µM (inactive) | GI50 (BT-549): 76.6 µM (inactive) | GI50 (CAKI-1): 51.8 µM (inactive) | GI50 (COLO 205): 24.2 µM (inactive) | GI50 (DU-145): 89.3 µM (inactive) | GI50 (EKVX): 63.7 µM (inactive) | GI50 (HCC 2998): 19.9 µM (inactive) | GI50 (HCT-116): 51.4 µM (inactive) | GI50 (HCT-15): 52.7 µM | GI50 (HL-60): 38.3 µM (inactive) | GI50 (HOP-62): > 100 µM (inactive) | GI50 (HOP-92): 69.7 µM (inactive) | GI50 (HT-29): 42.9 µM (inactive) | GI50 (Hs-578T): 83.2 µM (inactive) | GI50 (IGROV-1): 89.9 µM (inactive) | GI50 (K562): 42.5 µM (inactive) | GI50 (KM12): 46.9 µM (inactive) | GI50 (LOX IMVI): 44.4 µM (inactive) | GI50 (M14): 54.6 µM (inactive) | GI50 (MCF7): 37.9 µM (inactive) | GI50 (MDA-MB-231): 53.3 µM (inactive) | GI50 (MDA-MB-435): 52.1 µM (inactive) | GI50 (MDA-N): 33 µM (inactive) | GI50 (MOLT-4): 13.4 µM (inactive) | GI50 (Malme-3M): 61.7 µM (inactive) | GI50 (NCI-H226): 27.7 µM (inactive) | GI50 (NCI-H23): 46.1 µM (inactive) | GI50 (NCI-H460): 40.4 µM (inactive) | GI50 (NCI-H522): 33.9 µM (inactive) | GI50 (NCI/ADR-RES): 49.7 µM (inactive) | GI50 (OVCAR-3): 90.8 µM (inactive) | GI50 (OVCAR-4): 59.4 µM (inactive) | GI50 (OVCAR-5): > 100 µM (inactive) | GI50 (OVCAR-8): 64.1 µM (inactive) | GI50 (PC-3): 27 µM (inactive) | GI50 (RPMI-8226): 23.6 µM (inactive) | GI50 (RXF 393): 32.4 µM (inactive) | GI50 (SF-268): 69.5 µM (inactive) | GI50 (SF-295): 70.3 µM (inactive) | GI50 (SF-539): 30.3 µM (inactive) | GI50 (SK-MEL-28): 98.9 µM (inactive) | GI50 (SK-MEL-2): 44.1 µM (inactive) | GI50 (SK-MEL-5): 48.5 µM (inactive) | GI50 (SN12C): 58.6 µM (inactive) | GI50 (SNB-19): > 100 µM (inactive) | GI50 (SR): 26.4 µM (inactive) | GI50 (SW-620): > 100 µM (inactive) | GI50 (TK-10): 82.6 µM (inactive) | GI50 (U-251): 62.1 µM (inactive) | GI50 (UACC-257): 31.7 µM (inactive) | GI50 (UACC-62): 26.2 µM (inactive) | GI50 (UO-31): 2.64 µM (inactive)
